# Source: ChEMBL document CHEMBL4477231, “Design, synthesis and antiproliferative activity studies of novel dithiocarbamate-chalcone derivates” (Bioorg Med Chem Lett, 2016)
# The source made the active and inactive calls. The rule behind the calls is not given here.
# How the values were obtained:
# GES1 = assay: Cytotoxicity against human GES-1 cells assessed as reduction in cell viability after 72 hrs by MTT assay; format: cell-based; conditions: GES1, 72 h
# MGC-803 = assay: Cytotoxicity against human MGC803 cells assessed as cell growth inhibition after 72 hrs by MTT assay; format: functional, cell-based; conditions: MGC-803, 72 h
# ECa-109 cell line = assay: Cytotoxicity against human EC109 cells assessed as cell growth inhibition after 72 hrs by MTT assay; format: functional, cell-based; conditions: ECa-109, 72 h
# SK-N-SH [1] = assay: Cytotoxicity against human SK-N-SH cells assessed as cell growth inhibition after 72 hrs by MTT assay; format: functional, cell-based
# SK-N-SH [2] = assay: Cell cycle arrest in human SK-N-SH cells assessed as accumulation at S phase at 2.5 uM after 48 hrs by propidium iodide staining based flow cytometry (reference value: 27.41 %); format: functional
# SK-N-SH [3] = assay: Cell cycle arrest in human SK-N-SH cells assessed as accumulation at G2/M phase at 2.5 uM after 24 hrs by propidium iodide staining based flow cytometry (reference value: 17 %); format: functional
# SK-N-SH [4] = assay: Induction of apoptosis in human SK-N-SH cells at 5 uM after 24 hrs by Annexin V-FITC/propidium iodide staining based flow cytometry relative to control; format: functional
# SK-N-SH [5] = assay: Induction of apoptosis in human SK-N-SH cells assessed as formation of apoptotic bodies at 5 uM after 24 to 48 hrs by Hoechst 33258 staining based fluorescence microscopy; format: functional, cell-based
# SK-N-SH [6] = assay: Cell cycle arrest in human SK-N-SH cells assessed as accumulation at G2/M phase at 5 uM after 48 hrs by propidium iodide staining based flow cytometry (reference value: 18.35 %); format: functional
# SK-N-SH [7] = assay: Cell cycle arrest in human SK-N-SH cells assessed as accumulation at G0/G1 phase at 5 uM after 48 hrs by propidium iodide staining based flow cytometry (reference value: 54.35 %); format: functional
# SK-N-SH [8] = assay: Cell cycle arrest in human SK-N-SH cells assessed as accumulation at S phase at 2.5 uM after 24 hrs by propidium iodide staining based flow cytometry (reference value: 30.91 %); format: functional
# SK-N-SH [9] = assay: Induction of apoptosis in human SK-N-SH cells at 5 uM after 48 hrs by Annexin V-FITC/propidium iodide staining based flow cytometry relative to control; format: functional
# SK-N-SH [10] = assay: Cell cycle arrest in human SK-N-SH cells assessed as accumulation at G2/M phase at 2.5 uM after 48 hrs by propidium iodide staining based flow cytometry (reference value: 18.35 %); format: functional
# SK-N-SH [11] = assay: Induction of apoptosis in human SK-N-SH cells assessed as round cells at 5 uM after 24 to 48 hrs by Hoechst 33258 staining based fluorescence microscopy; format: functional, cell-based
# SK-N-SH [12] = assay: Induction of apoptosis in human SK-N-SH cells assessed as increase in p53 expression at 2.5 to 5 uM after 48 hrs; format: functional, cell-based
# SK-N-SH [13] = assay: Induction of apoptosis in human SK-N-SH cells assessed as reduction in procaspase-3 level at 2.5 to 5 uM after 48 hrs; format: functional, cell-based
# SK-N-SH [14] = assay: Cell cycle arrest in human SK-N-SH cells assessed as accumulation at G0/G1 phase at 5 uM after 24 hrs by propidium iodide staining based flow cytometry (reference value: 50.26 %); format: functional
# SK-N-SH [15] = assay: Cell cycle arrest in human SK-N-SH cells assessed as accumulation at G0/G1 phase at 2.5 uM after 24 hrs by propidium iodide staining based flow cytometry (reference value: 50.26 %); format: functional
# SK-N-SH [16] = assay: Cell cycle arrest in human SK-N-SH cells assessed as accumulation at S phase at 5 uM after 48 hrs by propidium iodide staining based flow cytometry (reference value: 27.41 %); format: functional
# SK-N-SH [17] = assay: Cell cycle arrest in human SK-N-SH cells assessed as accumulation at G0/G1 phase at 2.5 uM after 48 hrs by propidium iodide staining based flow cytometry (reference value: 54.35 %); format: functional
# SK-N-SH [18] = assay: Induction of apoptosis in human SK-N-SH cells assessed as chromatin shrinkage at 5 uM after 24 to 48 hrs by Hoechst 33258 staining based fluorescence microscopy; format: functional, cell-based
# SK-N-SH [19] = assay: Induction of apoptosis in human SK-N-SH cells at 5 uM by Annexin V-FITC/propidium iodide staining based flow cytometry; format: functional, cell-based; conditions: TDE = time-dependent effect
# SK-N-SH [20] = assay: Cell cycle arrest in human SK-N-SH cells assessed as accumulation at S phase at 5 uM after 24 hrs by propidium iodide staining based flow cytometry (reference value: 30.91 %); format: functional
# SK-N-SH [21] = assay: Cell cycle arrest in human SK-N-SH cells assessed as accumulation at G2/M phase at 5 uM after 24 hrs by propidium iodide staining based flow cytometry (reference value: 17 %); format: functional
compound,measurement,setting,value
COc1cc(/C=C/C(=O)c2ccc(OCCSC(=S)N3CCN(C)CC3)cc2)cc(OC)c1OC,IC50,GES1,> 64 µM
same,IC50,MGC-803,8.28 µM
same,IC50,ECa-109 cell line,10 µM
same,IC50,SK-N-SH [1],2.46 µM
O=C(/C=C/c1ccc(Cl)cc1)c1ccc(OCCSC(=S)N2CCCC2)cc1,IC50,MGC-803,47.9 µM
same,IC50,ECa-109 cell line,27.8 µM
same,IC50,SK-N-SH [1],18.3 µM
COc1cc(/C=C/C(=O)c2ccc(OCCCSC(=S)N3CCCC3)cc2)cc(OC)c1OC,IC50,MGC-803,14.5 µM
same,IC50,ECa-109 cell line,11.1 µM
same,IC50,SK-N-SH [1],12.8 µM
O=C(/C=C/c1ccc(Cl)cc1)c1ccc(OCCSC(=S)N2CCCCC2)cc1,IC50,MGC-803,12.8 µM
same,IC50,ECa-109 cell line,26.1 µM
same,IC50,SK-N-SH [1],27.4 µM
COc1cc(/C=C/C(=O)c2ccc(OCCCSC(=S)N3CCN(C)CC3)cc2)cc(OC)c1OC,IC50,GES1,> 64 µM
same,Activity,SK-N-SH [2],26.02%
same,Activity,SK-N-SH [3],18.55%
same,IC50,MGC-803,7.37 µM
same,IC50,ECa-109 cell line,7.43 µM
same,Activity,SK-N-SH [4],20.6%
same,Activity,SK-N-SH [5],Active
same,Activity,SK-N-SH [6],10.54%
same,Activity,SK-N-SH [7],74.85%
same,Activity,SK-N-SH [8],31.19%
same,Activity,SK-N-SH [9],36.8%
same,Activity,SK-N-SH [10],13.81%
same,Activity,SK-N-SH [11],Active
same,Activity,SK-N-SH [12],Active
same,Activity,SK-N-SH [13],Active
same,Activity,SK-N-SH [14],68.19%
same,Activity,SK-N-SH [15],50.03%
same,Activity,SK-N-SH [16],14.22%
same,Activity,SK-N-SH [17],59.64%
same,Activity,SK-N-SH [18],Active
same,IC50,SK-N-SH [1],2.03 µM
same,Activity,SK-N-SH [19],Tde
same,Activity,SK-N-SH [20],25.26%
same,Activity,SK-N-SH [21],6.11%
O=c1[nH]cc(F)c(=O)[nH]1 [FLUOROURACIL],IC50,MGC-803,7.21 µM
same,IC50,SK-N-SH [1],9.84 µM
COc1ccc(/C=C/C(=O)c2ccc(OCCCSC(=S)N3CCN(C)CC3)cc2)cc1,IC50,MGC-803,19.4 µM
same,IC50,ECa-109 cell line,> 100 µM
same,IC50,SK-N-SH [1],29.5 µM
CN1CCN(C(=S)SCCCOc2ccc(C(=O)/C=C/c3ccc(Cl)cc3)cc2)CC1,IC50,MGC-803,29.4 µM
same,IC50,ECa-109 cell line,34.2 µM
same,IC50,SK-N-SH [1],31.9 µM
O=C(/C=C/c1ccc(Cl)cc1)c1ccc(OCCCSC(=S)N2CCCCC2)cc1,IC50,MGC-803,56.8 µM
same,IC50,ECa-109 cell line,42.6 µM
same,IC50,SK-N-SH [1],32.2 µM
CN1CCN(C(=S)SCCCOc2ccc(C(=O)/C=C/c3cc(Cl)cc(Cl)c3)cc2)CC1,IC50,MGC-803,19.4 µM
same,IC50,ECa-109 cell line,12.4 µM
same,IC50,SK-N-SH [1],24.6 µM
O=C(/C=C/c1cccs1)c1ccc(OCCSC(=S)N2CCCC2)cc1,IC50,MGC-803,32.4 µM
same,IC50,ECa-109 cell line,18.2 µM
same,IC50,SK-N-SH [1],19.1 µM
CN1CCN(C(=S)SCCCOc2ccc(C(=O)/C=C/c3cc(F)cc(F)c3)cc2)CC1,IC50,MGC-803,16.3 µM
same,IC50,ECa-109 cell line,14.5 µM
same,IC50,SK-N-SH [1],13.2 µM
O=C(/C=C/c1cccnc1)c1ccc(OCCCSC(=S)N2CCCC2)cc1,IC50,MGC-803,19.5 µM
same,IC50,ECa-109 cell line,29.8 µM
same,IC50,SK-N-SH [1],24.5 µM
COc1cc(/C=C/C(=O)c2ccc(OCCSC(=S)N3CCCC3)cc2)cc(OC)c1OC,IC50,MGC-803,31.7 µM
same,IC50,ECa-109 cell line,10.7 µM
same,IC50,SK-N-SH [1],12.1 µM
O=C(/C=C/c1ccc(Cl)cc1)c1ccc(OCCCSC(=S)N2CCCC2)cc1,IC50,MGC-803,34.5 µM
same,IC50,ECa-109 cell line,18.6 µM
same,IC50,SK-N-SH [1],19.1 µM
O=C(/C=C/c1cccs1)c1ccc(OCCCSC(=S)N2CCCCC2)cc1,IC50,MGC-803,41.3 µM
same,IC50,ECa-109 cell line,36.4 µM
same,IC50,SK-N-SH [1],38.2 µM
O=C(/C=C/c1cc(F)cc(F)c1)c1ccc(OCCCSC(=S)N2CCCC2)cc1,IC50,MGC-803,28.4 µM
same,IC50,ECa-109 cell line,28.8 µM
same,IC50,SK-N-SH [1],36.1 µM
COc1cc(/C=C/C(=O)c2ccc(OCCSC(=S)N3CCCCC3)cc2)cc(OC)c1OC,IC50,MGC-803,41.3 µM
same,IC50,ECa-109 cell line,38.9 µM
same,IC50,SK-N-SH [1],48.4 µM
O=C(/C=C/c1ccc(Cl)cc1)c1ccc(OCCSC(=S)N2CCOCC2)cc1,IC50,MGC-803,11.5 µM
same,IC50,ECa-109 cell line,15.4 µM
same,IC50,SK-N-SH [1],11.7 µM
